Test results published in patent US9242998B2, “Tetracyclic heterocycle compounds and methods of use thereof for the treatment of hepatitis C” (priority 2013, dated 2016).

Columns and labels:
HCV genotype 1a replicon = test: HCV replicon assay, genotype 1a (cell ELISA for replicon-encoded NS3/4A); format: cell-based; conditions: Hepatitis C virus, 96 h, read-out: 1a IC50
Procedure: (§1) Measurement of inhibition by compounds was performed using the HCV replicon system. Several different replicons encoding different HCV genotypes or mutations were used. In addition, potency measurements were made using different formats of the replicon assay, including different ways of measurements and different plating formats. See Jan M. Vrolijk et al., A replicons-based bioassay for the measurement of interferons in patients with chronic hepatitis C, 110 J. V[…] 201 (2003); Steven S. Carroll et al., Inhibition of Hepatitis C Virus RNA Replication by 2′-Modified Nucleoside Analogs, 278(14) J. BIOLOGICAL CHEMISTRY 11979 (2003). However, the underlying principles are common to all of these determinations, and are outlined below.
(§2) Stable neomycin phosphotransferase encoding replicons-harboring cell lines were used, so all cell lines were maintained under G418 selection prior to the assay. Potency was determined using a cell ELISA assay with an antibody to the replicons encoded NS3/4a protease. See Caterina Trozzi et al., In Vitro Selection and Characterization of Hepatitis C Virus Serine Protease Variants Resistant to an Active-Site Peptide Inhibitor, 77(6) J. Virol. 3669 (2003). To initiate an assay, replicon cells were plated in the presence of a dilution series of test compound in the absence of G418. Typically, the assays were performed in a 96-well plate formate for manual operation, or a 384-well plate format for automated assay. Replicon cells and compound were incubated for 96 hours. At the end of the assay, cells were washed free of media and compound, and the cells were then lysed. RNA was quantified indirectly through detection of replicon-encoded NS3/4A protein levels, through an ELISA-based assay with an antibody specific for NS3/4A. IC50 determinations were calculated as a percentage of a DMSO control by fitting the data to a four-parameter fit function and the data obtained is provided in the table below.
(§3) Data for selected compounds of the present invention was obtained for genotypes 1a and 1b using this method and is provided in the table below: […]

HCV genotype 1b replicon = test: HCV replicon assay, genotype 1b (cell ELISA for replicon-encoded NS3/4A); format: cell-based; conditions: Hepatitis C virus, 96 h, read-out: 1b IC50
Procedure: as §1, §2, §3

| SMILES | IC50 (HCV genotype 1a replicon) [nM] | IC50 (HCV genotype 1b replicon) [nM] |
| --- | --- | --- |
| CNC(=O)c1c(-c2ccc(OC)nc2)oc2cc(N(C)S(C)(=O)=O)c(-c3ccc4c(n3)-c3cc5c(F)cccc5n3C(CO)O4)cc12 (single isomer, unassigned) [Compound 21, (S or R)-5-(11-fluoro-6-(hydroxymethyl)-6H-pyrido[2′,3′:5,6][1,3]oxazino[3,4-a]indol-2-yl)-2-(6-methoxypyridin-3-yl)-N-methyl-6-(N-methylmethylsulfonamido)benzofuran-3-carboxamide] | 2.4 | 2.8 |
| CNC(=O)c1c(C2CC2)oc2cc(N(C)S(C)(=O)=O)c(-c3ccc4c(n3)-c3cc5c(F)cccc5n3C(CO)O4)cc12 (single isomer, unassigned) [Compound 51, (R or S)-2-cyclopropyl-5-(11-fluoro-6-(hydroxymethyl)-6H-pyrido[2′,3′:5,6][1,3]oxazino[3,4-a]indol-2-yl)-N-methyl-6-(N-methylmethylsulfonamido)benzofuran-3-carboxamide] | 8.3 | 15 |
| CNC(=O)c1c(-c2ccnc(OC)c2)oc2cc(N(C)S(C)(=O)=O)c(-c3ccc4c(n3)-c3cc5c(F)cccc5n3CO4)cc12 [Compound 1, 5-(11-fluoro-6H-pyrido[2′,3′:5,6][1,3]oxazino[3,4-a]indol-2-yl)-2-(2-methoxypyridin-4-yl)-N-methyl-6-(N-methylmethylsulfonamido)benzofuran-3-carboxamide] | 11 | 14 |
| CNC(=O)c1c(C2CC2)oc2cc(N(C)S(C)(=O)=O)c(-c3ccc4c(n3)-c3cc5c(F)cccc5n3CO4)cc12 [Compound 2] | 13 | 12 |
| CNC(=O)c1c(C=C(C)C)oc2cc(N(C)S(C)(=O)=O)c(-c3ccc4c(n3)-c3cc5c(F)cccc5n3CO4)cc12 [Compound 3] | 3.6 | 5.8 |
| CNC(=O)c1c(-c2ccc(F)nc2)oc2cc(N(C)S(C)(=O)=O)c(-c3ccc4c(n3)-c3cc5c(F)cccc5n3CO4)cc12 [Compound 4] | 3 | 6.1 |
| CNC(=O)c1c(-c2cnn(C)c2)oc2cc(N(C)S(C)(=O)=O)c(-c3ccc4c(n3)-c3cc5c(F)cccc5n3CO4)cc12 [Compound 5] | 4.4 | 7.5 |
| CCOc1ccc(-c2oc3cc(N(C)S(C)(=O)=O)c(-c4ccc5c(n4)-c4cc6c(F)cccc6n4CO5)cc3c2C(=O)NC)cn1 [Compound 6] | 17 | 12 |
| CNC(=O)c1c(-c2ccc(C)nc2)oc2cc(N(C)S(C)(=O)=O)c(-c3ccc4c(n3)-c3cc5c(F)cccc5n3CO4)cc12 [Compound 7] | 8.5 | 13 |
| CNC(=O)c1c(-c2ccc(C(F)(F)F)cc2)oc2cc(N(C)S(C)(=O)=O)c(-c3ccc4c(n3)-c3cc5c(F)cccc5n3CO4)cc12 [Compound 8] | 6.3 | 4.5 |
| CNC(=O)c1c(-c2ccc(C(F)F)nc2)oc2cc(N(C)S(C)(=O)=O)c(-c3ccc4c(n3)-c3cc5c(F)cccc5n3CO4)cc12 [Compound 9] | 2.5 | 3.4 |
| CNC(=O)c1c(-c2ccc(OC(C)C)nc2)oc2cc(N(C)S(C)(=O)=O)c(-c3ccc4c(n3)-c3cc5c(F)cccc5n3CO4)cc12 [Compound 10] | 15 | 13 |
| CNC(=O)c1c(-c2ccc(OC)nc2)oc2cc(N(C)S(C)(=O)=O)c(-c3ccc4c(n3)-c3cc5c(F)cccc5n3CO4)cc12 [Compound 11] | 7.2 | 8.4 |
| CNC(=O)c1c(-c2ccc(OCC(F)(F)F)nc2)oc2cc(N(C)S(C)(=O)=O)c(-c3ccc4c(n3)-c3cc5c(F)cccc5n3CO4)cc12 [Compound 12] | 2.7 | 1.8 |
| CNC(=O)c1c(-c2cnc(OC)nc2)oc2cc(N(C)S(C)(=O)=O)c(-c3ccc4c(n3)-c3cc5c(F)cccc5n3CO4)cc12 [Compound 13] | 16 | 9.4 |
| CCn1cc(-c2oc3cc(N(C)S(C)(=O)=O)c(-c4ccc5c(n4)-c4cc6c(F)cccc6n4CO5)cc3c2C(=O)NC)cn1 [Compound 14] | 9.1 | 18 |
| CNC(=O)c1c(-c2cccnc2OC)oc2cc(N(C)S(C)(=O)=O)c(-c3ccc4c(n3)-c3cc5c(F)cccc5n3CO4)cc12 [Compound 15] | 23 | 34 |
| CNC(=O)c1c(-c2cn(C)nc2C)oc2cc(N(C)S(C)(=O)=O)c(-c3ccc4c(n3)-c3cc5c(F)cccc5n3CO4)cc12 [Compound 16] | 26 | 8.5 |
| CNC(=O)c1c(-c2cccnc2O)oc2cc(N(C)S(C)(=O)=O)c(-c3ccc4c(n3)-c3cc5c(F)cccc5n3CO4)cc12 [Compound 17, 5-(11-fluoro-6H-pyrido[2′,3′:5,6][1,3]oxazino[3,4-a]indol-2-yl)-2-(2-hydroxypyridin-3-yl)-N-methyl-6-(N-methylmethylsulfonamido)benzofuran-3-carboxamide] | 324 | 393 |
| CNC(=O)c1c(-c2ccn(C)c(=O)c2)oc2cc(N(C)S(C)(=O)=O)c(-c3ccc4c(n3)-c3cc5c(F)cccc5n3CO4)cc12 [Compound 18, 5-(11-fluoro-6H-pyrido[2′,3′:5,6][1,3]oxazino[3,4-a]indol-2-yl)-N-methyl-2-(1-methyl-2-oxo-1,2-dihydropyridin-4-yl)-6-(N-methylmethylsulfonamido)benzofuran-3-carboxamide] | 57 | 29 |
| CNC(=O)c1c(-c2ccc(OC)nc2)oc2cc(N(C)S(C)(=O)=O)c(-c3ccc4c(n3)-c3nc5cccc(F)c5n3CO4)cc12 [Compound 19, 5-(8-fluoro-6H-benzo[4,5]imidazo[1,2-c]pyrido[2,3-e][1,3]oxazin-2-yl)-2-(6-methoxypyridin-3-yl)-N-methyl-6-(N-methylmethylsulfonamido)benzofuran-3-carboxamide] | 35 | 13 |
| CNC(=O)c1c(-c2ccc(OC)nc2)oc2cc(N(C)S(C)(=O)=O)c(-c3ccc4c(n3)-c3nc5c(F)cccc5n3CO4)cc12 [Compound 20, 5-(11-fluoro-6H-benzo[4,5]imidazo[1,2-c]pyrido[2,3-e][1,3]oxazin-2-yl)-2-(6-methoxypyridin-3-yl)-N-methyl-6-(N-methylmethylsulfonamido)benzofuran-3-carboxamide] | 3.7 | 2.5 |
| CNC(=O)c1c(-c2ccc(C(F)F)nc2)oc2cc(N(C)S(C)(=O)=O)c(-c3ccc4c(n3)-c3cc5c(F)cccc5n3C(CO)O4)cc12 (stereo not shown) [Compound 22] | 3.5 | 2.5 |
| CNC(=O)c1c(-c2ccc(OC(F)F)nc2)oc2cc(N(C)S(C)(=O)=O)c(-c3ccc4c(n3)-c3cc5c(F)cccc5n3C(CO)O4)cc12 (stereo not shown) [Compound 23] | 2.8 | 2.9 |
| CNC(=O)c1c(-c2ccc(OCC(F)(F)F)nc2)oc2cc(N(C)S(C)(=O)=O)c(-c3ccc4c(n3)-c3cc5c(F)cccc5n3C(CO)O4)cc12 (stereo not shown) [Compound 24] | 1.7 | 1.4 |
| CNC(=O)c1c(-c2ccc(OC(F)F)nc2)oc2cc(N(C)S(C)(=O)=O)c(-c3ccc4c(n3)-c3cc5c(F)cccc5n3CO4)cc12 [Compound 25, 2-(6-(difluoromethoxy)pyridin-3-yl)-5-(11-fluoro-6H-pyrido[2′,3′:5,6][1,3]oxazino[3,4-a]indol-2-yl)-N-methyl-6-(N-methylmethylsulfonamido)benzofuran-3-carboxamide] | 3 | 5 |
| CNC(=O)c1c(-c2ccc(=O)n(C(F)F)c2)oc2cc(N(C)S(C)(=O)=O)c(-c3ccc4c(n3)-c3cc5c(F)cccc5n3CO4)cc12 [Compound 26, 2-(1-(difluoromethyl)-6-oxo-1,6-dihydropyridin-3-yl)-5-(11-fluoro-6H-pyrido[2′,3′:5,6][1,3]oxazino[3,4-a]indol-2-yl)-N-methyl-6-(N-methylmethylsulfonamido)benzofuran-3-carboxamide] | 118 | 108 |
| CNC(=O)c1c(-c2ccc(Oc3ccc(F)cc3)nc2)oc2cc(N(C)S(C)(=O)=O)c(-c3ccc4c(n3)-c3cc5c(F)cccc5n3CO4)cc12 [Compound 27, 5-(11-fluoro-6H-pyrido[2′,3′:5,6][1,3]oxazino[3,4-a]indol-2-yl)-2-(6-(4-fluorophenoxy)pyridin-3-yl)-N-methyl-6-(N-methylmethylsulfonamido)benzofuran-3-carboxamide] | 23 | 34 |
| CNC(=O)c1c(-c2ccc(C(F)F)cc2)oc2cc(N(C)S(C)(=O)=O)c(-c3ccc4c(n3)-c3cc5c(F)cccc5n3CO4)cc12 [Compound 28, 2-(4-(difluoromethyl)phenyl)-5-(11-fluoro-6H-pyrido[2′,3′:5,6][1,3]oxazino[3,4-a]indol-2-yl)-N-methyl-6-(N-methylmethylsulfonamido)benzofuran-3-carboxamide] | 9 | 6.9 |
